# ChEMBL document CHEMBL1137917, “Synthesis and structure-activity investigation of iodinated arylhydantoins and arylthiohydantoins for development as androgen receptor radioligands” (Bioorg Med Chem Lett, 2004)
# Target: T1, Androgen receptor (Rattus norvegicus, UniProt P15207)
# T1 sequence (P15207 whole entry): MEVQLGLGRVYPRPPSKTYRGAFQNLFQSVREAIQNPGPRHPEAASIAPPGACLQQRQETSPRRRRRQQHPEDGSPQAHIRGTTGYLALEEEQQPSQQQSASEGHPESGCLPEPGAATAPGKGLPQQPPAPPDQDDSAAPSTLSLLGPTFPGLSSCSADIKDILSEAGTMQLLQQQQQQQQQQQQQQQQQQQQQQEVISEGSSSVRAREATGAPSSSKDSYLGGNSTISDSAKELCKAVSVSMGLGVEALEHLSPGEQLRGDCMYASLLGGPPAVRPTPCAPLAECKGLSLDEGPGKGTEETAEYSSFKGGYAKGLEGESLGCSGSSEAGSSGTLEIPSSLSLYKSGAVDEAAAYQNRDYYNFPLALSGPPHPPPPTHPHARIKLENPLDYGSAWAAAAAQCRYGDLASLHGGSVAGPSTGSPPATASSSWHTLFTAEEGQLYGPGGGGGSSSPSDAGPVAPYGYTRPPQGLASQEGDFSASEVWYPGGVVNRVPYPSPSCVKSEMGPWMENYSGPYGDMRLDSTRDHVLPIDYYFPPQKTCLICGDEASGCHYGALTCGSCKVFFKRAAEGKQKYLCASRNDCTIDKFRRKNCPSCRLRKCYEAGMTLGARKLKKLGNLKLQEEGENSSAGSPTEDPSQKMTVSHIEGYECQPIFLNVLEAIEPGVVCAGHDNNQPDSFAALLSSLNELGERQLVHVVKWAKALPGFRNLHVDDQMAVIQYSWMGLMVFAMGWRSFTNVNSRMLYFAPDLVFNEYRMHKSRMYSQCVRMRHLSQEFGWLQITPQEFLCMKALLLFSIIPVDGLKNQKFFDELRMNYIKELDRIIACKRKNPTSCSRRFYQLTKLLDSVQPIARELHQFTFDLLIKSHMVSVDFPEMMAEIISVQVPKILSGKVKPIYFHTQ
# Experiment: Inhibition of rat prostate cytosolic androgen receptor
row,Structure (SMILES),Ki
1,CC1(C)C(=O)N(c2ccc(C#N)c(I)c2)C(=S)N1Cc1ccccc1,0.219 µM
2,CCCCN1C(=S)N(c2ccc(C#N)c(I)c2)C(=O)C1(C)C,0.117 µM
3,CC1(C)C(=O)N(c2ccc(C#N)c(I)c2)C(=O)N1CCCCO,0.002 µM
4,CN1C(=S)N(c2ccc(C#N)c(I)c2)C(=O)C1(C)C,0.0025 µM
5,CCCCN1C(=O)N(c2ccc(C#N)c(I)c2)C(=O)C1(C)C,0.077 µM
6,COCCN1C(=S)N(c2ccc(C#N)c(I)c2)C(=O)C1(C)C,0.037 µM
7,C=CCN1C(=O)N(c2ccc(C#N)c(I)c2)C(=O)C1(C)C,0.059 µM
8,CC1(C)C(=O)N(c2ccc(C#N)c(I)c2)C(=O)N1CCCc1ccccc1,0.639 µM
